# Results reported in ChEMBL document CHEMBL1649149, “Sitafloxacin and garenoxacin may overcome the antibiotic resistance of Helicobacter pylori with gyrA mutation” (2009).
# What was measured:
# Type in all cases: functional
# Helicobacter pylori [1] = assay: Antibacterial activity against Helicobacter pylori infected in human assessed as bacterial eradication rate at 20 mg, po BID for 10 days by 13C-urea breath test
# Helicobacter pylori [2] = assay: Antibacterial activity against Helicobacter pylori harboring gyrA mutant gene by agar dilution method
# Helicobacter pylori [3] = assay: Antibacterial activity against Helicobacter pylori
# Helicobacter pylori [4] = assay: Antibacterial activity against Helicobacter pylori infected in human assessed as bacterial eradication rate at 1 g, po BID for 7 days
# Helicobacter pylori [5] = assay: Antibacterial activity against Helicobacter pylori harboring gyrA mutant gene infected in human assessed as bacterial eradication rate after 7 days
# Helicobacter pylori [6] = assay: Antibacterial activity against Helicobacter pylori infected in human assessed as bacterial eradication rate at 20 mg, po BID for 7 days
# Helicobacter pylori [7] = assay: Antibacterial activity against Helicobacter pylori infected in human assessed as bacterial eradication rate at 400 mg, po QD for 7 days
# Helicobacter pylori [8] = assay: Antibacterial activity against GAT-susceptible Helicobacter pylori infected in human assessed as bacterial eradication rate for 7 days
# Helicobacter pylori [9] = assay: Antibacterial activity against Helicobacter pylori harboring gyrA mutant gene
# Helicobacter pylori [10] = assay: Antibacterial activity against Helicobacter pylori harboring gyrA mutant gene assessed as resistant isolates
SMILES,MIC50 (Helicobacter pylori [2]) [µg/mL],MIC90 (Helicobacter pylori [2]) [µg/mL],Activity (Helicobacter pylori [4]) [%],Activity (Helicobacter pylori [5]) [%],Activity (Helicobacter pylori [6]) [%],Activity (Helicobacter pylori [7]) [%],also measured
COc1ccc2[nH]c([S+]([O-])Cc3ncc(C)c(OC)c3C)nc2c1 (configuration not stated) [OMEPRAZOLE],,,,,,,Activity (Helicobacter pylori [1]): 66%
N[C@@H]1CN(c2c(F)cc3c(=O)c(C(=O)O)cn([C@@H]4C[C@@H]4F)c3c2Cl)CC12CC2 [SITAFLOXACIN ANHYDROUS],0.12,0.25,,,,,MIC90 (Helicobacter pylori [3]): < 0.008 µg/mL
CC1(C)S[C@@H]2[C@H](NC(=O)[C@H](N)c3ccc(O)cc3)C(=O)N2[C@H]1C(=O)O [AMOXICILLIN],,,84.4,33.3,84.4,84.4,
COCCCOc1ccnc(C[S+]([O-])c2nc3ccccc3[nH]2)c1C (configuration not stated) [RABEPRAZOLE],,,84.4,,84.4,84.4,Activity (Helicobacter pylori [8]): 100%
COc1c(N2CCNC(C)C2)c(F)cc2c(=O)c(C(=O)O)cn(C3CC3)c12 (configuration not stated) [GATIFLOXACIN],2,4,84.4,33.3,84.4,84.4,MIC (Helicobacter pylori [9]): ≥ 1 µg/mL; Activity (Helicobacter pylori [10]): 47.9%
C[C@H]1NCc2cc(-c3ccc4c(=O)c(C(=O)O)cn(C5CC5)c4c3OC(F)F)ccc21 [GARENOXACIN],0.5,1,,,,,
